The record followed here is patent publication US20170275298A1, “INHIBITORS OF THE RENAL OUTER MEDULLARY POTASSIUM CHANNEL” (Merck Sharp & Dohme Corp., priority 2014, published 2017).

One may read the pIC50 as the negative decadic logarithm of the IC50, by convention in mol/L.

pIC50: −log10 of the molar value.

In the assay the target is T1, hROMK (hKir1.1) (Homo sapiens, UniProt P48048).
T1 construct: expressed in transfected cells
T1 sequence (P48048 1-391): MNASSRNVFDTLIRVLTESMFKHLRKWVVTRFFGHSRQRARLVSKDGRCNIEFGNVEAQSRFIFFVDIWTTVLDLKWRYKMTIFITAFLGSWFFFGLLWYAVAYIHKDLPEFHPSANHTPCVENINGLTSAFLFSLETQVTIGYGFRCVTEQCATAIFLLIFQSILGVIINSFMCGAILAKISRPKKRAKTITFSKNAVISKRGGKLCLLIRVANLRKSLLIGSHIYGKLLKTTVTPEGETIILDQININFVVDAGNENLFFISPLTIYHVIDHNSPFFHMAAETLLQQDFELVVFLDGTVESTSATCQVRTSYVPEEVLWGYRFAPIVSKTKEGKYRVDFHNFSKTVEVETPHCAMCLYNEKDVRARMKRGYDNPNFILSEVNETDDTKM
In words: Thallium Flux Assay (ROMK channel functional thallium flux assay). The assay is classed as cell-based. The settings on record: HEK293 cells stably expressing hROMK (hKir1.1); FluxOR thallium flux, FLIPR-Tetra, 30 min compound incubation; read-out: ROMK TI IC50. The protocol: The following Thallium Flux Assay was performed on each of the final product compounds in the Examples.
HEK293 cells stably expressing hROMK (hKir1.1) were grown at 37° C. in a 10% CO2 humidified incubator in complete growth media: Dulbecco's Modified Eagle Medium supplemented with non-essential amino acids, Penicillin/Streptomycin/Glutamine, G418 and FBS. At >80% confluency, the media was aspirated from the flask and rinsed with 10 mL calcium/magnesium-free PBS. […] To dislodge the cell, the side of the flask was gently banged with one's hand. The cells completely titrated and then the cells were transferred to 25 mL complete media, centrifuged at 1,500 rpm for 6 min followed by resuspension in complete growth media and determine cell concentration. […] Under ideal growth conditions and appropriate tissue culture practices, this cell line is stable for 40-45 passages.
• FluxOR™ Reagent (Component A) • FluxOR™ Assay Buffer (Component B)—10× Concentrate • PowerLoad™ Concentrate (Component C)—100× Concentrate • Probenecid (Component D)—Lyophilized sample is kept at −20° C. Water soluble, 100× after solubilization in 1 mL water. […] Store at 4° C. • Thallium sulfate (Tl2SO4) Concentrate (Component G)—50 mM in water. Store at 4° C. • DMSO (dimethyl sulfoxide, Component H)—1 mL (100%)
Can be stored at room temperature • Stimulant Buffer (prepared at 5× final concentration in 1×FluxOR™ Chloride-Free Buffer): 7.5 mM thallium sulfate and 0.75 mM potassium sulfate (to give a final assay concentration of 3 mM Thallium/0.3 mM potassium). Store at 4° C. when not in use. If kept sterile, this solution is good for months.
The ROMK channel functional thallium flux assay was performed in 384 wells, using the FLIPR-Tetra instrument. HEK-hKir1.1 cells were seeded in Poly-D-Lysine microplates and kept in a 37° C.-10% CO2 incubator overnight. On the day of the experiment, the growth media was replaced with the FluxOR™ reagent loading buffer and incubated, protected from light, at ambient temperature (23-25° C.) for 90 min. The loading buffer was replaced with assay buffer±test compound followed by 30 min incubation at ambient temperature, where the thallium/potassium stimulant was added to the microplate.
1. Seed HEK-hKir1.1 cells (50 μl at 20,000 cells/well) in 384-well PDL coated Microplates 2. Allow cells to adhere overnight in humidified 37° C./10% CO2 incubator 3. Completely remove cell growth media from microplate and replace with 25 μl loading buffer 4. Incubate Microplate at room temperature, protected form light, for 90 min 5. Remove loading buffer and replace with 25 μl 1× Assay Buffer±test compound. 6. Incubate microplate at room temperature, protected from light, for 30 min 7. […] Excitation=400 nm, Emission=460 & 580 nm. Collect data for ˜10 min.
The fluorescence intensity of wells containing 3 μM of a standard control ROMK inhibitor of the present invention was used to define the ROMK-sensitive component of thallium flux. Fluorescence in the presence of test compounds was normalized to control values to provide % fluorescence change.
For the compound `Cc1c([C@H](O)CN2CCC3(CC2)CCN(c2ccc(=O)n(C)n2)C3=O)ccc2c1COC2=O` (single isomer, unassigned) [Example 57], the pIC50 is 6.60. For `[2H]C([2H])(N1CCC2(CCN(c3ccc(=O)n(C)n3)C2=O)CC1)[C@]([2H])(O)c1ccc2c(c1C)COC2=O` (single isomer, unassigned) [Example 58], the pIC50 was 7.44. The same measure for `[2H]C([2H])(N1CCC2(CCN(c3ccc(=O)n(C)n3)C2=O)CC1)[C@@]([2H])(O)c1ccc2c(c1C)COC2=O` (single isomer, unassigned) [Example 59]: 6.34; for `Cc1nsc(N2CCC3(CCN(C[C@H](O)c4ccc5c(c4C)COC5=O)CC3)C2)n1` [Example 1, 5-{(1R)-1-hydroxy-2-[2-(3-methyl-1,2,4-thiadiazol-5-yl)-2,8-diazaspiro[4.5]dec-8-yl]ethyl}-4-methyl-2-benzofuran-1(3H)-one]: 6.60; for `Cc1c([C@@H](O)CN2CCC3(CC2)CCN(c2nc(Cl)cs2)C3)ccc2c1COC2=O` [Example 2, 5-{(1R)-2-[2-(4-chloro-1,3-thiazol-2-yl)-2,8-diazaspiro[4.5]dec-8-yl]-1-hydroxyethyl}-4-methyl-2-benzofuran-1(3H)-one]: 6.03. Consider `CC(=O)OCc1nsc(N2CCC3(CCN(C[C@H](O)c4ccc5c(c4C)COC5=O)CC3)C2)n1` [Example 3, (5-{8-[(2R)-2-hydroxy-2-(4-methyl-1-oxo-1,3-dihydro-2-benzofuran-5-yl)ethyl]-2,8-diazaspiro[4.5]dec-2-yl}-1,2,4-thiadiazol-3-yl)methyl acetate], for which the pIC50 was 7.00. Turning to `Cc1c([C@@H](O)CN2CCC3(CC2)CCN(c2nsc(Cl)n2)C3)ccc2c1COC2=O` [Example 4, (R)-5-(2-(2-(5-chloro-1,2,4-thiadiazol-3-yl)-2,8-diazaspiro[4.5]decan-8-yl)-1-hydroxyethyl)-4-methylisobenzofuran-1(3H)-one], the pIC50 was 7.35. Consider `Cc1c([C@@H](O)CN2CCC3(CC2)CCN(c2nc(Cl)ns2)C3)ccc2c1COC2=O` [Example 5, (R)-5-(2-(2-(3-chloro-1,2,4-thiadiazol-5-yl)-2,8-diazaspiro[4.5]decan-8-yl)-1-hydroxyethyl)-4-methylisobenzofuran-1(3H)-one], for which the pIC50 was 7.19.

On to `COc1ccc(N2CCC3(CCN(C[C@H](O)c4cc(OC)c(C#N)cn4)CC3)C2)nn1` [Example 6, (S)-6-(1-hydroxy-2-(2-(6-methoxypyridazin-3-yl)-2,8-diazaspiro[4.5]decan-8-yl)ethyl)-4-methoxynicotinonitrile], for which the pIC50 was 6.32.

For `Cc1c([C@@H](O)CN2CCC3(CC2)CCN(c2ccns2)C3)ccc2c1COC2=O` [Example 7, (R)-5-(1-hydroxy-2-(2-(isothiazol-5-yl)-2,8-diazaspiro[4.5]decan-8-yl)ethyl)-4-methylisobenzofuran-1(3H)-one], the pIC50 is 6.83.

Turning to `Cc1c([C@@H](O)CN2CCC3(CC2)CCN(c2ncns2)C3)ccc2c1COC2=O` [Example 8, (R)-5-(2-(2-(1,2,4-thiadiazol-5-yl)-2,8-diazaspiro[4.5]decan-8-yl)-1-hydroxyethyl)-4-methylisobenzofuran-1(3H)-one], the pIC50 was 6.28. On to `Cc1c([C@@H](O)CN2CCC3(CC2)CCN(c2cc(C(F)(F)F)ncn2)C3)ccc2c1COC2=O` [Example 9, (R)-5-(1-hydroxy-2-(2-(6-(trifluoromethyl)pyrimidin-4-yl)-2,8-diazaspiro[4.5]decan-8-yl)ethyl)-4-methylisobenzofuran-1(3H)-one], for which the negative logarithm of the IC50 (pIC50) is 6.76.

As for `COc1cc(N2CCC3(CCN(C[C@H](O)c4ccc5c(c4C)COC5=O)CC3)C2)nc(OC)n1` [Example 10, (R)-5-(2-(2-(2,6-dimethoxypyrimidin-4-yl)-2,8-diazaspiro[4.5]decan-8-yl)-1-hydroxyethyl)-4-methylisobenzofuran-1(3H)-one], the pIC50 is 6.14. For `Cc1c([C@@H](O)CN2CCC3(CC2)CCN(c2ccc(=O)n(C)n2)C3)ccc2c1COC2=O` [Example 11, (R)-6-(8-(2-hydroxy-2-(4-methyl-1-oxo-1,3-dihydroisobenzofuran-5-yl)ethyl)-2,8-diazaspiro[4.5]decan-2-yl)-2-methylpyridazin-3(2H)-one], the pIC50 is 7.17. For `COc1cc(N2CCC3(CCN(C[C@H](O)c4ccc5c(c4C)COC5=O)CC3)C2)ccn1` [Example 12, (R)-5-(1-hydroxy-2-(2-(2-methoxypyridin-4-yl)-2,8-diazaspiro[4.5]decan-8-yl)ethyl)-4-methylisobenzofuran-1(3H)-one], the pIC50 was 6.02. As for `COc1nsc(N2CCC3(CCN(C[C@H](O)c4ccc5c(c4C)COC5=O)CC3)C2)n1` [Example 13, (R)-5-(1-hydroxy-2-(2-(3-methoxy-1,2,4-thiadiazol-5-yl)-2,8-diazaspiro[4.5]decan-8-yl)ethyl)-4-methylisobenzofuran-1(3H)-one], the figure is 6.47; as for `COc1nccc(N2CCC3(CCN(C[C@H](O)c4ccc5c(c4C)COC5=O)CC3)C2)n1` [Example 14, (R)-5-(1-hydroxy-2-(2-(2-methoxypyrimidin-4-yl)-2,8-diazaspiro[4.5]decan-8-yl)ethyl)-4-methylisobenzofuran-1(3H)-one], 6.38; as for `COc1ncc(N2CCC3(CCN(C[C@H](O)c4ccc5c(c4C)COC5=O)CC3)C2)cn1` [Example 15, (R)-5-(1-hydroxy-2-(2-(2-methoxypyrimidin-5-yl)-2,8-diazaspiro[4.5]decan-8-yl)ethyl)-4-methylisobenzofuran-1(3H)-one], 6.55. Take `Cc1c([C@@H](O)CN2CCC3(CC2)CN(c2ccns2)C3)ccc2c1COC2=O` [Example 16]: the pIC50 was 6.38. `Cc1c([C@@H](O)CN2CCC3(CC2)CN(c2ccc(=O)n(C)n2)CCO3)ccc2c1COC2=O` [Example 17, (R)-6-(9-(2-hydroxy-2-(4-methyl-1-oxo-1,3-dihydroisobenzofuran-5-yl)ethyl)-1-oxa-4,9-diazaspiro[5.5]undecan-4-yl)-2-methylpyridazin-3(2H)-one]: the pIC50 was 7.05.

Take `Cc1nc(-n2cnnn2)ccc1[C@@H](O)CN1CCC2(CC1)CN(c1ccc(=O)n(C)n1)CCO2` [Example 18, (R)-6-(9-(2-hydroxy-2-(2-methyl-6-(1H-tetrazol-1-yl)pyridin-3-yl)ethyl)-1-oxa-4,9-diazaspiro[5.5]undecan-4-yl)-2-methylpyridazin-3(2H)-one]: the pIC50 was 6.42. The same measure for `Cc1cc(-n2cnnn2)ccc1[C@@H](O)CN1CCC2(CC1)CN(c1ccc(=O)n(C)n1)CCO2` [Example 19, (R)-6-(9-(2-hydroxy-2-(2-methyl-4-(1H-tetrazol-1-yl)phenyl)ethyl)-1-oxa-4,9-diazaspiro[5.5]undecan-4-yl)-2-methylpyridazin-3(2H)-one]: 6.27; for `Cc1c(CCN2CCC3(CC2)CCN(c2ccc(=O)n(C)n2)C3=O)ccc2c1COC2=O` [Example 20, 8-(2-(4-methyl-1-oxo-1,3-dihydroisobenzofuran-5-yl)ethyl)-2-(1-methyl-6-oxo-1,6-dihydropyridazin-3-yl)-2,8-diazaspiro[4.5]decan-1-one]: 7.29. As for `Cn1nc(N2CCC3(CCN(CCc4ccc(-n5cnnn5)nn4)CC3)C2=O)ccc1=O` [Example 21, 8-(2-(6-(1H-tetrazol-1-yl)pyridazin-3-yl)ethyl)-2-(1-methyl-6-oxo-1,6-dihydropyridazin-3-yl)-2,8-diazaspiro[4.5]decan-1-one], the figure is 6.25.
